In publication PMC8315922, “In Vitro Identification and In Vivo Confirmation of Inhibitors for Sweet Potato Chlorotic Stunt Virus RNA Silencing Suppressor, a Viral RNase III” (Journal of Virology, 2021):

What was measured:
[1] = biological target: CSR3 (RNase III of SPCSV) (Sweet potato chlorotic stunt virus, UniProt Q8JJW8); test: Kinetic-based HTS (FRET, labeled 22-bp siRNA cleavage), one concentration; assay type: biochemical; conditions: compound 10 μM, 375 nM siRNA, 37°C
Excerpt: Based on the catalytic activity of CSR3 on 22-bp siRNA, our kinetic-based HTS assay was designed using distance-dependent FRET technology. Specifically, one strand of siRNA, as a substrate, was labeled with a fluorescent dye (6-carboxyfluorescein [FAM]) at the 5′ end and a quencher (black hole quencher 1 [BHQ1]) at the 3′ end. The initial reaction rate of CSR3 was quantified using the slope of raw fluorescence under an excitation/emission spectrum at 485/520 nm (Fig. 3A). […] In this study, a total of 6,622 compounds (including 6,400 selected from Glide docking and 222 empirically selected compounds for preliminary assay setup) were screened using kinetic-based HTS at a final concentration of 10 μM. All 384-well screening plates contained 32 negative (with CSR3 [i.e., the substrate was successfully cleaved]) and 32 positive (without CSR3 [i.e., the substrate remained intact]) control reaction mixtures. To evaluate the quality of the HTS assay, the Z-factor (Z′) parameter was calculated using the reaction rates of the positive and negative controls ([30]). […]
The HTS assay was designed based on FRET using a 22-bp siRNA (forward sequence, […]; reverse sequence, […]) with a 2-nucleotide (nt) 3′ overhang labeled with the fluorescent dye 6-carboxyfluorescein (FAM) and a black hole quencher (BHQ1) on the sense strand (Metabion, Munich, Germany). […] The plates were read with a PHERAstar FS reader (BMG Labtech, Ortenberg, Germany).
For HTS, the activity of CSR3 was calculated by measuring the change in fluorescence as a function of the reaction time using MARS Data Analysis software (BMG Labtech). To evaluate the CSR3 inhibition efficiency of individual compounds, the PI of each compound was calculated using the slope values for the sample, positive control, and negative control according to the following equation: PI = 100 × [1 − (sample − positive)/(negative − positive)]%. IC50 and DSS values were calculated using concentration-specific PI values according to a previous study ([31]). Relative gene expression was calculated using the classical 2^−ΔΔ^CT method ([63]).

[2] = tested on: human enzymes or bacterial proteins; design: method as in earlier work; conditions: ref PubChem https://pubchem.ncbi.nlm.nih.gov/compound/7114450#section=Biological-Test-Results; cited from earlier work

Chain of CSR3 (RNase III of SPCSV) (Q8JJW8 entry or part of it): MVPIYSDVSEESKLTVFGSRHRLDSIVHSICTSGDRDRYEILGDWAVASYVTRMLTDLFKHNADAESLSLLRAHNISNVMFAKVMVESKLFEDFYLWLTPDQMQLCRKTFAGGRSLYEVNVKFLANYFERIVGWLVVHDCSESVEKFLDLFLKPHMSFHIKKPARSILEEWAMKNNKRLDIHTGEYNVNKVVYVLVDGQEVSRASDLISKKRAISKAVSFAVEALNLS

Row | SMILES | PI values (percentage of inhibition) [1] [%] | activity in inhibitor screens for human enzymes or bacterial proteins [2]
1 | O=C1c2c(O)ccc(O)c2C(=O)c2c(NCCNCCO)ccc(NCCNCCO)c21 [FIMM000490] | 102.062 | –
2 | O=C(O)c1ccc(C2Nc3c(Br)cccc3C3C=CCC32)cc1 (stereo not shown) [FIMM022230] | – | inactive
3 | Cc1ccc(C2Nc3ccc(C(=O)O)cc3C3C=CCC32)cc1 (stereo not shown) [FIMM031755] | – | affected the activity of chain B of the human cytokine/receptor binary complex
4 | COc1cc(C=C2C(=O)NC(=S)NC2=O)ccc1OCc1ccccc1[N+](=O)[O-] [FIMM101864] | 98.4382 | –
